As usually defined, the EC50 is the concentration giving half of the maximal effect.

The values below come from paper PMC11187126, “Structure and dynamics of the pyroglutamylated RF-amide peptide QRFP receptor GPR103” (Nature Communications, 2024).

The target in the test is T1, GPR103 C327^7.48A (Homo sapiens, UniProt Q96P65, C327A).
T1 construct: we used human full-length QRFPR-encoding plasmids; expressed in transfected cells; host or cells: HEK293 cells (HEK293A in the flow cytometry section), pCAGGS vector
T1 sequence (Q96P65 1-431 C327A): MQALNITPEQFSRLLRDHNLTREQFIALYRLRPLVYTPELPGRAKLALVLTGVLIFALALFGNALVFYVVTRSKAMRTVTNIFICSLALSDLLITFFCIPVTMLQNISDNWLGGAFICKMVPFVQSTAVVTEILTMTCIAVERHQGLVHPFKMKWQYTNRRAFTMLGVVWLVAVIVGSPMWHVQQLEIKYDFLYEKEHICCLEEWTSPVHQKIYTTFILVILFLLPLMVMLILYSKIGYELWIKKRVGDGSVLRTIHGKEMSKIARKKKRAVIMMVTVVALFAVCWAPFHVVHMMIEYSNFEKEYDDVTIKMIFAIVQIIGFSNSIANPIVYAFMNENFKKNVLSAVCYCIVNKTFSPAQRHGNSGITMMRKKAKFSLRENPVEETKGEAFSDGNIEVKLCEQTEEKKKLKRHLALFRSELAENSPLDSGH
The test is described as follows: TGFα shedding assay; Exp. level WT (1:5). The format is cell-based. Here is the method:
For the TGFα shedding assay and the flow cytometry analysis, we used human full-length QRFPR-encoding plasmids. Specifically, GPR103 was N-terminally modified with an HA signal sequence followed by a FLAG epitope and then a flexible linker ([…]; the FLAG epitope is underlined) and inserted into the pCAGGS vector. Plasmid encoding GPR103 mutants were generated using Quickchange Site-Directed Mutagensis kit (Agilent).
The TGFα shedding assay was performed as described previously with minor modifications. Plasmid transfection was performed in a 6-well plate with a mixture of 500 ng (per well in a 6-well plate) AP-TGFα-encoding plasmid and 200 ng GPR103-encoding plasmid. After 1-day culture, the transfected cells were harvested by trypsinization, pelleted by centrifugation at 190 × g for 5 min, and washed once with 5 mM HEPES (pH 7.4)-containing Hank’s Balanced Salt Solution (HBSS). After centrifugation, the cells were resuspended in 8 mL of the HEPES-containing HBSS. The cell suspension was seeded in a 96-well culture plate (cell plate) at a volume of 90 μL (per well hereafter) and incubated in a 37 °C incubator with 5% CO2 for 30 min. […] After spinning the cell plates at 190 × g for 2 min, 80 μL of conditioned media was transferred to an empty 96-well plate (conditioned media (CM) plate). Then, 80 μL of AP reaction solution (10 mM p-nitrophenylphosphate (p-NPP), 120 mM Tris-HCl (pH 9.5), 40 mM NaCl, and 10 mM MgCl2) was dispensed into the cell plates and the CM plates. Absorbance at 405 nm of the plates was measured using a microplate reader (SpectraMax 340 PC384, Molecular Devices) before and after 1-h incubation at room temperature. Ligand-induced AP-TGFα release was calculated by subtracting spontaneous AP-TGFα release signal from ligand-induced AP-TGFα release signal. The AP-TGFα release signals were fitted to a four-parameter sigmoidal concentration–response curve, using the Prism 10 software (GraphPad Prism). For each replicate experiment, the pEC50 parameter (negative logarithmic values of EC50 values) of the individual GPR103 mutants were normalized to that of the wild-type GPR103 performed in parallel, and resulting ∆pEC50 values were used to denote ligand response activity of the mutants. […]
Exp. le vel: WT (1:5 0)Exp. le vel: WT (1:5 0)Exp. le vel: WT (1:5 0)Exp. le vel: WT (1:2 0)Exp. le vel: WT (1:2 0)Exp. le vel: WT (1:1 0) […]
L1 4N - t e r mA F2 5N - t e r mA I 2 6N - t e r mA Y 2 9N - t e r mA C 9 82 .5 7A T10 22 .6 1A Exp . l eve l: WT (1 :5)Exp . l evel : >WT (1 :1)Exp. le vel: WT (1:2 0)Exp. le vel: WT (1:2 0)Exp. le vel: WT (1:5 0)Exp . l eve l: WT (1 :1) […]
Exp. le vel: WT (1:1 0)Exp. le vel: WT (1:2 0) C 1 1 83 .2 5AExp. le vel: WT (1:5 0)Exp. le vel: WT (1:5 0)Exp. le vel: WT (1:2 0)Exp . l eve l: WT (1 :5) […]
Exp. le vel: WT (1:5 0)Exp. le vel: WT (1:1 0)Exp. le vel: WT (1:5 0) E203ECL2AExp . l evel : >WT (1 :1)Exp. le vel: WT (1:5 0)Exp. le vel: WT (1:5 0) […]
Exp . l eve l: WT (1 :1) F28Exp. le vel: WT (1:5 0) C 2 8 56 .4 7AExp. le vel: WT (1:2 0) WExp. le vel: WT (1:2 0) F28Exp. le vel: WT (1:5 0)Exp . l evel : >WT (1 :1) […]
Exp. le vel: WT (1:5 0)Exp. le vel: WT (1:5 0) C 3 2 77 .4 8AExp . l eve l: WT (1 :5)Exp . l evel : >WT (1 :1)Exp . l evel : >WT (1 :1) […]
Suppl eme nt ary Figure 1 | Mutational analysis of GPR103. […]
mutants. Data are presented as mean values ± SEM, normally n=3-5; dots), each performed in triplicate. b-d Cell-surface expression (b) and QRFP26-in-duced activation of GPR103 (c, d) were analyzed by the flow cytometry and the TGFα shedding assay, respectively. From the concentration–response curves (a), Emax (c) and ΔpEC50 (d) values relative to the wild type were calculated. Colors in the mutant bars indicate an expression level matching to that of titrated wild type. Statistical analyses were performed using the ordinary one-way ANOVA followed by Dunnett tests with the expression-matched […]

Read-outs that look alike come from different tables or passages of the source. No end group written: not given here.

Turning to TSGPLGNLAEELNGYSRKKGGFSFRF-NH2 [QRFP26], the Emax by setting is: (Exp. #1) 95.99 % WT; (Exp. #2) 96.35 % WT; (Exp. #3) 104.77 % WT; (mean, read-out: Emax) 99%; (n = 3, read-out: Emax) 104 ± 2.3%. In addition, the response (n = 3) was half-maximal at 4.27 nM (EC50).
